Laboratory results published in US20170275287A1, “NOVEL N2, N4, N7, 6-TETRASUBSTITUTED PTERIDINE-2,4,7-TRIAMINE AND 2, 4, 6, 7-TETRASUBSTITUTED PTERIDINE COMPOUNDS AND METHODS OF SYNTHESIS AND USE THEREOF” (Janus Biotherapeutics, Inc., priority 2014, published 2017).
Like-named read-outs stand apart in the source and are kept apart here.

Experiments:
[1] = Toxicokinetics of the 7-day tox study; format: in vivo, rats; settings: for increase in AUC0-24 h for a 10-fold increase in dose / increase in Cmax for a 10-fold increase in dose: 10 to 100 mg/kg; for AUC / half-life / Cmax / Tmax / clearance / Vd / bioavailability: rat; for half-life: read-out: T½ (converted); for Vd: read-out: Vdss; for bioavailability: read-out: calculated oral absolute bioavailability
Procedure: A 7-day non-GLP tox study was performed in rats. […] The following parameters and end points were evaluated in this study: clinical signs, body weights, body weight changes, food consumption, clinical pathology parameters (hematology, coagulation, clinical chemistry, and urinalysis), toxicokinetic parameters, gross necropsy findings, organ weights, and histopathologic examinations.
Clinical signs and body weight changes in the TK animals were generally similar to the main toxicology phase animals. Select toxicokinetic parameters from Days 1 and 7 are included below in Table 11.

TLR7 = target: T1, TLR7 (Mus musculus, UniProt P58681); experiment: In vivo TLR7 knockdown (JB6011 agonist challenge); set-up: species or system mice; settings: for ED50: translated for a 25 gram mouse
T1 construct: endogenous in cells
T1 sequence (P58681 27-1050): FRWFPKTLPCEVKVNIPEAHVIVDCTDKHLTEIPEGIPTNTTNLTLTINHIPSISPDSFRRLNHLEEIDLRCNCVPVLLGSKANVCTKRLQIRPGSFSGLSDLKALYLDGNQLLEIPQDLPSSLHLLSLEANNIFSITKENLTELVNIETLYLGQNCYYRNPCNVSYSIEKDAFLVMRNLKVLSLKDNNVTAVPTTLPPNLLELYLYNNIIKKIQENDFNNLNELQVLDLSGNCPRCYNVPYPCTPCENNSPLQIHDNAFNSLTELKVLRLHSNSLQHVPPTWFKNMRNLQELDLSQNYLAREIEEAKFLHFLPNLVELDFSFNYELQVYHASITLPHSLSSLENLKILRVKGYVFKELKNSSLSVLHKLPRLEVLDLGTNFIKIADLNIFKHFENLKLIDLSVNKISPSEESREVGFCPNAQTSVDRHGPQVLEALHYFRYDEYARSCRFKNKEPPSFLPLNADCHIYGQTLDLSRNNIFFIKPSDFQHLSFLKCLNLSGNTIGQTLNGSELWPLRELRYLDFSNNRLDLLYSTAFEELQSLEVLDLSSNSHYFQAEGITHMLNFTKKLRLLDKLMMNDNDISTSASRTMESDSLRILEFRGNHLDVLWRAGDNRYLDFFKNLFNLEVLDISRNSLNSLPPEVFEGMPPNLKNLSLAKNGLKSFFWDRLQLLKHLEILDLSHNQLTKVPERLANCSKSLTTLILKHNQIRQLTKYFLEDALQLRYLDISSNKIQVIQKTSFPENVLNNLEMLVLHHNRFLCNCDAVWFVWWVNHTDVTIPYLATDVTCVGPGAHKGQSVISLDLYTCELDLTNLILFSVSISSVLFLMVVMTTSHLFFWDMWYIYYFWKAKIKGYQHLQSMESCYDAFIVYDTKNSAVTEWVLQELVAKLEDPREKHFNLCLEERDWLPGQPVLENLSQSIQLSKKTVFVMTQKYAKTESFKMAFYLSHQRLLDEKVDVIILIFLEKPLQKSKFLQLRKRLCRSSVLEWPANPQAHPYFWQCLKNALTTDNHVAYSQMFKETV
Procedure: Mice were treated with test antagonist at varying doses at T=0 hr. Agonist treatment (CpG-DNA) dosed one hour later, T=1 hr for IP groups and two hours later, T=2 hr for PO groups. Necropsy performed 3 hours post agonist treatment, T=4 hr (IP groups) or T=5 hr (PO groups). Serum cytokines induced by the TLR agonist are measured by ELISA. Groups size per dose, n=3. The mean+/−SD of two independent ELISA's at differing serum dilutions is plotted.
JB6121 was also tested in vivo for TLR7 knockdown activity utilizing the TLR7 small molecule agonist JB6011 as the agonist challenge. […] This roughly translates to a 3.92 mg/kg IP dose and 11.44 mg/kg PO dose for a 25 gram mouse.

[2] = all three oral doses, whole blood
[3] = female, whole blood, iv, 5 mg/kg, Day 1, 5 mg/kg I.V., Female
[4] = female, whole blood, po, 10 mg/kg, Day 1, 10 mg/kg oral, Female
[5] = female, whole blood, po, 10 mg/kg, Day 7, 10 mg/kg oral, Female
[6] = female, whole blood, po, 30 mg/kg, Day 1, 30 mg/kg oral, Female
[7] = female, whole blood, po, 30 mg/kg, Day 7, 30 mg/kg oral, Female
[8] = female, whole blood, po, 100 mg/kg, Day 1, 100 mg/kg oral, Female
[9] = female, whole blood, po, 100 mg/kg, Day 7, 100 mg/kg oral, Female
[10] = male, whole blood, iv, 5 mg/kg, Day 1, 5 mg/kg I.V., Male
[11] = male, whole blood, po, 10 mg/kg, Day 1, 10 mg/kg oral, Male
[12] = male, whole blood, po, 10 mg/kg, Day 7, 10 mg/kg oral, Male
[13] = male, whole blood, po, 30 mg/kg, Day 1, 30 mg/kg oral, Male
[14] = male, whole blood, po, 30 mg/kg, Day 7, 30 mg/kg oral, Male
[15] = male, whole blood, po, 100 mg/kg, Day 1, 100 mg/kg oral, Male
[16] = male, whole blood, po, 100 mg/kg, Day 7, 100 mg/kg oral, Male
[17] = whole blood, iv, Day 1, 5 mg/kg I.V., Female
[18] = whole blood, iv, Day 1, 5 mg/kg I.V., Male

SMILES: CN1CCN(c2nc(NCCN3CCOCC3)c3nc(Cl)c(NCCN4CCOCC4)nc3n2)CC1 [JB6121, 6-chloro-2-(4-methylpiperazin-1-yl)-N^4,N^7-bis(2-morpholinoethyl)pteridine-4,7-diamine]
- 7-day accumulation ([1]; 7 day toxicokinetics versus 24 h PK whole blood exposures): approximately 2 fold
- F (0-x) ([1]; Day 1, 10 mg/kg oral, Female): 8.10%
- F (0-x) ([1]; Day 1, 10 mg/kg oral, Male): 13.3%
- F (0-x) ([1]; Day 1, 30 mg/kg oral, Female): 37.2%
- F (0-x) ([1]; Day 1, 30 mg/kg oral, Male): 28.0%
- F (0-x) ([1]; Day 1, 100 mg/kg oral, Female): 91.0%
- F (0-x) ([1]; Day 1, 100 mg/kg oral, Male): 78.5%
- increase in AUC0-24 h for a 10-fold increase in dose ([1]; Day 1, female): 113 fold
- increase in Cmax for a 10-fold increase in dose ([1]; Day 1, female): 43 fold
- increase in AUC0-24 h for a 10-fold increase in dose ([1]; Day 1, male): 59 fold
- increase in Cmax for a 10-fold increase in dose ([1]; Day 1, male): 32 fold
- increase in AUC0-24 h for a 10-fold increase in dose ([1]; Day 7, female): 38 fold
- increase in Cmax for a 10-fold increase in dose ([1]; Day 7, female): 20 fold
- increase in AUC0-24 h for a 10-fold increase in dose ([1]; Day 7, male): 48 fold
- increase in Cmax for a 10-fold increase in dose ([1]; Day 7, male): 24 fold
- average D7/D1 AUC0-24 h ratio [1, 2]: 2.79
- average D7/D1 Cmax ratio [1, 2]: 1.71
- AUC [1, 3]: 2210 ng·h/mL
- half-life [1, 3]: 10.8 h
- AUC [1, 4]: 357 ng·h/mL
- Cmax [1, 4]: 92 ng/mL
- Tmax [1, 4]: 3 h
- half-life [1, 4]: 5.43 h
- AUC [1, 5]: 2120 ng·h/mL
- Cmax [1, 5]: 260 ng/mL
- Tmax [1, 5]: 3 h
- half-life [1, 5]: 18.2 h
- AUC [1, 6]: 4920 ng·h/mL
- Cmax [1, 6]: 643 ng/mL
- Tmax [1, 6]: 3 h
- half-life [1, 6]: 8.8 h
- AUC [1, 7]: 8890 ng·h/mL
- Cmax [1, 7]: 639 ng/mL
- Tmax [1, 7]: 6 h
- half-life [1, 7]: 14.3 h
- AUC [1, 8]: 40300 ng·h/mL
- Cmax [1, 8]: 3980 ng/mL
- Tmax [1, 8]: 3 h
- half-life [1, 8]: 9.39 h
- AUC [1, 9]: 80200 ng·h/mL
- Cmax [1, 9]: 5310 ng/mL
- Tmax [1, 9]: 3 h
- half-life [1, 9]: 14.1 h
- AUC [1, 10]: 2790 ng·h/mL
- half-life [1, 10]: 10.2 h
- AUC [1, 11]: 743 ng·h/mL
- Cmax [1, 11]: 122 ng/mL
- Tmax [1, 11]: 3 h
- half-life [1, 11]: 14.1 h
- AUC [1, 12]: 1910 ng·h/mL
- Cmax [1, 12]: 181 ng/mL
- Tmax [1, 12]: 3 h
- half-life [1, 12]: 19.9 h
- AUC [1, 13]: 4700 ng·h/mL
- Cmax [1, 13]: 582 ng/mL
- Tmax [1, 13]: 3 h
- half-life [1, 13]: 9.39 h
- AUC [1, 14]: 11100 ng·h/mL
- Cmax [1, 14]: 805 ng/mL
- Tmax [1, 14]: 6 h
- half-life [1, 14]: 18.4 h
- AUC [1, 15]: 43800 ng·h/mL
- Cmax [1, 15]: 3950 ng/mL
- Tmax [1, 15]: 3 h
- half-life [1, 15]: 11.9 h
- AUC [1, 16]: 91200 ng·h/mL
- Cmax [1, 16]: 6280 ng/mL
- Tmax [1, 16]: 3 h
- half-life [1, 16]: 40.4 h
- slope of Cmax versus dose ([1]; pooled 7-day exposure data, 0 to 30 mg/kg): 28.24 ng/mL/mg/kg
- clearance [1, 17]: 31.5 mL/min/kg
- Vd [1, 17]: 23.1 L/kg
- clearance [1, 18]: 24.7 mL/min/kg
- Vd [1, 18]: 18.1 L/kg
- bioavailability ([1]; whole blood, po, Day 1, 10 mg/kg): 13.3%
- bioavailability ([1]; whole blood, po, Day 1, 30 mg/kg): 28%
- bioavailability ([1]; whole blood, po, Day 1, 100 mg/kg): 78.5%
- ED50 (TLR7; 4 h, IP, read-out: ID50, TLR7 knockdown, IP dose): ~3.92 mg/kg
- ED50 (TLR7; 5 h, PO, read-out: ID50, TLR7 knockdown, PO dose): ~11.4 mg/kg
- ID50, TLR7 knockdown, IP injection (TLR7; mice, IP, JB6011 challenge): 98.34 μg injection dose
- ID50, TLR7 knockdown, PO gavage (TLR7; mice, PO, JB6011 challenge): 286 μg delivery dose
